What all share (test): growth of human tumour cells (NCI), 48 h
The test system of test [1] is MOLT-4 leukemia.
For test [2], the system named is U251 CNS.
Test [3] concerns SF-268 CNS.
Test [4] deals with K-562 leukemia.
The subject of test [5] is A498 renal.
The test system of test [6] is HL-60(TB) leukemia.
Test [7] relates to SW-620 colon.
In test [8] the test system is NCI-H460 lung.
The subject of test [9] is SK-MEL-28 melanoma.
Test [10] deals with NCI/ADR-RES ovarian.

For 14 compounds, GI50 and TGI results are on record in PubChem BioAssay (NCI).

Each structure is given as a SMILES string.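 Tested at 5 concentrations; 48 h exposure; 96-well plates; endpoints linearly interpolated, else capped at highest concentration. The concentration for 50% growth inhibition is given as GI50. TGI: concentration producing complete growth inhibition.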

Consider `COc1cc2c(c(OC)c1OC)-c1ccc(SC)c(=O)cc1[C@@H](NCc1cccc(C#N)c1)CC2`, for which the GI50 in test [1], in [3], in test [4], in test [6] and in test [7] was < 0.0075 µM in each case. Further, the TGI is 69.2 µM in [1]; 0.0434 µM in test [2]; 18.2 µM in test [4]; 0.0732 µM in test [5]; > 75 µM in test [7]; 8.97 µM in test [8].

Turning to `NCCCC1NC(=O)/C(=C(O)/C=C/C2CCC[C@@H]2CC2SCCS2)C1=O` (some centres not stated), the TGI in test [1], in test [2], in test [3], in [4], in [9] and in [5] was > 100 µM throughout. Besides, the TGI in test [6] is 64.3 µM; in [7] it was > 100 µM; in test [8], > 100 µM.

Turning to `Cc1ccccc1NC(=O)C1C(=O)N(c2ccccc2C)C(=O)/C1=N\N` (configuration not stated), the TGI in [1], in test [2], in test [3], in [4], in test [9] and in test [5] was > 100 µM throughout. For the same compound, the TGI in test [6], in [7] and in test [8] was > 100 µM each time.

With `Cc1c(C(=O)/C=C/c2ccccc2Cl)[n+](=O)c2ccccc2n1[O-]`, the TGI turned out to be 42 µM in test [1]; 27.4 µM in test [2]; 26.5 µM in test [4]; 31.6 µM in test [9]; 26.9 µM in [5]; 62.8 µM in test [6]. Further, the TGI is 24 µM in test [7] and 24.4 µM in [8].

Take `CCOC(=O)N1N=NC2C3OC(C[C@@]3(C#N)OC(C)=O)[C@H]21` (some centres not stated): the TGI in test [1], in test [2], in [3], in test [4], in [9] and in test [6] was > 100 µM each time. The TGI in test [7] and in test [8] was > 100 µM in each case.

Regarding `Nc1ccc2c(c1)CC1c3ccccc3C(C2)c2ccccc21`, the TGI in test [1], in [2], in test [3], in test [4], in [5] and in test [6] was > 100 µM in each case. For the same compound, the TGI in test [7] and in test [8] was > 100 µM each time.

`CC(=O)Nc1ccccc1-c1cnc2ccccc2n1`: the TGI in test [1], in [2], in [3], in test [4], in test [9] and in [5] was > 100 µM throughout. Further, the TGI in [6], in test [7] and in test [8] was > 100 µM each time.

Consider `CC(=O)C1C(=O)C(=O)N(c2ccccc2N2C(=O)C(=O)C(C(C)=O)C2=O)C1=O` (configuration not stated), for which the TGI in [1], in test [2], in test [3], in test [4], in test [9] and in [5] was > 100 µM in each case. Moreover, the TGI in test [6], in test [7] and in test [8] was > 100 µM throughout.

As for `COc1c(NC(=O)CC(C)=O)[c]([Hg][O]C(C)=O)c(OC)c(Cl)[c]1[Hg][O]C(C)=O`, the GI50 in test [1] was 19 µM; in test [2], 10.1 µM; in test [3], 12.8 µM; in [4], 8.46 µM; in [9], 11.3 µM; in [7] it was 7.62 µM. Further, the GI50 in test [8] is 21.3 µM. Further, the TGI in test [1] is 64.4 µM; in test [2], 23.2 µM; in test [3], 28.5 µM; in test [4], 41.1 µM; in [9] it was 23.9 µM; in test [7], 20.8 µM. Besides, the TGI in [8] stood at 49.9 µM.

In the case of `Cc1ccccc1-c1c(N)nc(N)nc1C(=O)Nc1nccs1`, the TGI in test [1], in [2], in [3], in test [4], in [9] and in test [5] was > 100 µM each time. Further, the TGI in test [6], in test [7] and in test [8] was > 100 µM throughout.

For `O=C1c2cc3c(cc2[C@@H]2[C@H]1c1ccc([N+](=O)[O-])cc1C(=O)N2CCCCl)OCO3`, the GI50 in [1] is > 100 µM; in test [10], < 0.01 µM; in test [2], < 0.01 µM; in test [3], < 0.01 µM; in [4] it was 0.857 µM; in test [5], < 0.01 µM. Besides, the GI50 in test [7] and in test [8] was < 0.01 µM in each case. Further, the TGI was > 100 µM in [1]; 0.548 µM in test [10]; < 0.0128 µM in test [2]; > 100 µM in test [4]; < 0.01 µM in test [5]; > 100 µM in test [7]. For the same compound, the TGI in [8] is 13.6 µM.

In the case of `CC[C@H](C)[C@H](NC(=O)Nc1ccccc1)C(=O)N(C)[C@H](C[C@@H](OC(C)=O)c1nc(C(=O)N[C@@H](Cc2ccccc2)C[C@H](C)C(=O)OC)cs1)C(C)C`, the GI50 was 54.2 µM in test [10]; 3.16 µM in test [2]; 5.13 µM in [3]; > 100 µM in test [9]; 3.58 µM in test [7]; 2.83 µM in [8]. Also, the TGI in [10], in [2], in [3], in test [9], in test [7] and in test [8] was > 100 µM in each case.

As to `CCCCCCCCCC1C(C)c2c([nH]c3ccccc23)C2C(=O)N(c3ccccc3)C(=O)C21` (configuration not stated), the TGI in test [1] stood at 9.44 µM; in [2], 26.7 µM; in test [4], 15.9 µM; in test [9], 4.7 µM; in test [5], 33.8 µM; in test [6] it was 13.4 µM. Besides, the TGI in [7] is > 100 µM; in test [8] it was 13.7 µM.

As to `Cc1ccc(NC(=O)CC/C(CC(=O)c2ccc(F)cc2)=N\NC(=O)C(=O)NN)cc1C`, the TGI in test [2], in test [3], in test [4], in test [9], in test [5] and in test [6] was > 100 µM in each case. Moreover, the TGI in test [7] and in [8] was > 100 µM throughout.
